# Results from US10774064B2 (Cadent Therapeutics, Inc., priority 2016, dated 2020).
# Biological target: T1, small-conductance Ca2+-activated K+ channels (SK channels, subtype 2) (Homo sapiens, UniProt Q9H2S1)
# T1 construct: expressed in transfected cells; host or cells: HEK293
# Assay: whole-cell patch-clamp of ionic current through SK2 channels in HEK293 cells (SC100)
# Type: cell-based
# Conditions: concentration that increases the basal current by 100%; HEK293 cells expressing SK2 channels
# In short: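 SC100, the concentration doubling basal current (a 100% increase), was taken from SK2 currents recorded by whole-cell patch-clamp in SK2-expressing HEK293 cells.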
row,SMILES,SC100
1,"Cc1cc(NC2CCC(F)(F)CC2)nc(-n2cc(C)c(CF)n2)n1 [Compound 258, N-(4,4-difluorocyclohexyl)-2-(3-(fluoromethyl)-4-methyl-1H-pyrazol-1-yl)-6-methylpyrimidin-4-amine]",++ (++ means 200 nM-1000 nM)
2,"Cc1cc(C)n(-c2cc(NCc3ncco3)cc(NC3CCC(F)(F)CC3)n2)n1 [Compound 259, N2-(4,4-difluorocyclohexyl)-6-(3,5-dimethyl-1H-pyrazol-1-yl)-N4-(oxazol-2-ylmethyl)pyridine-2,4-diamine]",+ (+ means >1 uM)
3,"CCc1cc(C)nn1-c1nc(C)cc(NC2CCC(F)(F)CC2)n1 [Compound 260, N-(4,4-difluorocyclohexyl)-2-(5-ethyl-3-methyl-1H-pyrazol-1-yl)-6-methylpyrimidin-4-amine]",+ (+ means >1 uM)
4,"Cc1cc(C)n(-c2cc(OCc3nnc(C)o3)cc(NC3CCC(F)(F)CC3)n2)n1 [Compound 261, N-(4,4-difluorocyclohexyl)-6-(3,5-dimethyl-1H-pyrazol-1-yl)-4-((5-methyl-1,3,4-oxadiazol-2-yl)methoxy)pyridin-2-amine]",++ (++ means 200 nM-1000 nM)
5,"Cc1cc(C)n(-c2nc(NC3CCC(F)(F)CC3)cc(C3=CCCOC3)n2)n1 [Compound 262, N-(4,4-difluorocyclohexyl)-6-(5,6-dihydro-2H-pyran-3-yl)-2-(3,5-dimethyl-1H-pyrazol-1-yl)pyrimidin-4-amine]",++ (++ means 200 nM-1000 nM)
6,"Cc1cc(C)n(-c2cc(OCc3ccc(F)cc3)cc(NC3CCC(F)(F)CC3)n2)n1 [Compound 263, N-(4,4-difluorocyclohexyl)-6-(3,5-dimethyl-1H-pyrazol-1-yl)-4-((4-fluorobenzyl)oxy)pyridin-2-amine]",++ (++ means 200 nM-1000 nM)
7,"COc1ccc(CNc2cc(NC3CCC(F)(F)CC3)nc(-n3nc(C)cc3C)c2)cc1 [Compound 264, N2-(4,4-difluorocyclohexyl)-6-(3,5-dimethyl-1H-pyrazol-1-yl)-N4-(4-methoxybenzyl)pyridine-2,4-diamine]",++ (++ means 200 nM-1000 nM)
8,"Cc1cc(NC2CCC(F)(F)CC2)nc(-n2ccc(C(C)(C)O)n2)c1 [Compound 265, 2-(1-(6-((4,4-difluorocyclohexyl)amino)-4-methylpyridin-2-yl)-1H-pyrazol-3-yl)propan-2-ol]",+ (+ means >1 uM)
9,"Cc1cc(C)n(-c2cc3c(ncn3C)c(NC3CCC(F)(F)CC3)n2)n1 [Compound 266, N-(4,4-difluorocyclohexyl)-6-(3,5-dimethyl-1H-pyrazol-1-yl)-1-methyl-1H-imidazo[4,5-c]pyridin-4-amine]",++ (++ means 200 nM-1000 nM)
10,"Cc1cc(NC2CCC(F)(F)CC2)nc(-c2nc(C3CC3)cs2)n1 [Compound 267, 2-(4-cyclopropylthiazol-2-yl)-N-(4,4-difluorocyclohexyl)-6-methylpyrimidin-4-amine]",+ (+ means >1 uM)
11,"Cc1cc(C)n(-c2cc(OCc3cnnn3C)cc(NC3CCC(F)(F)CC3)n2)n1 [Compound 268, N-(4,4-difluorocyclohexyl)-6-(3,5-dimethyl-1H-pyrazol-1-yl)-4-((1-methyl-1H-1,2,3-triazol-5-yl)methoxy)pyridin-2-amine]",++ (++ means 200 nM-1000 nM)
12,"Cc1cc(NC2CCC(F)(F)CC2)nc(-c2nc(C(F)(F)F)cs2)n1 [Compound 269, N-(4,4-difluorocyclohexyl)-6-methyl-2-(4-(trifluoromethyl)thiazol-2-yl)pyrimidin-4-amine]",+ (+ means >1 uM)
13,"Cc1cc(NC2CCC(F)(F)CC2)nc(-c2nc(CO)cs2)n1 [Compound 270, (2-(4-((4,4-difluorocyclohexyl)amino)-6-methylpyrimidin-2-yl)thiazol-4-yl)methanol]",+ (+ means >1 uM)
14,"Cc1cc(C)n(-c2cc(OCc3ncnn3C)cc(NC3CCC(F)(F)CC3)n2)n1 [Compound 271, N-(4,4-difluorocyclohexyl)-6-(3,5-dimethyl-1H-pyrazol-1-yl)-4-((1-methyl-1H-1,2,4-triazol-5-yl)methoxy)pyridin-2-amine]",++ (++ means 200 nM-1000 nM)
15,Cc1cc(C)n(-c2nc(NC3CCC(F)(F)CC3)cc(OCc3ncn(C)n3)n2)n1 [Compound 272],+ (+ means >1 uM)
16,"Cc1cc(NC2CCC(F)(F)CC2)nc(-c2nc(CF)cs2)n1 [Compound 273, N-(4,4-difluorocyclohexyl)-2-(4-(fluoromethyl)thiazol-2-yl)-6-methylpyrimidin-4-amine]",++ (++ means 200 nM-1000 nM)
17,"Cc1cc(C)n(-c2nc(NC3CCC(F)(F)CC3)cc(OCc3ncnn3C)n2)n1 [Compound 274, N-(4,4-difluorocyclohexyl)-2-(3,5-dimethyl-1H-pyrazol-1-yl)-6-((1-methyl-1H-1,2,4-triazol-5-yl)methoxy)pyrimidin-4-amine]",+ (+ means >1 uM)

row,SMILES,SC100
1,"Cc1cc(C)n(-c2cc(OCc3ncn(C)n3)cc(NC3CCC(F)(F)CC3)n2)n1 [Compound 275, N-(4,4-difluorocyclohexyl)-6-(3,5-dimethyl-1h-pyrazol-1-yl)-4-((1-methyl-1H-1,2,4-triazol-3-yl)methoxy)pyridin-2-amine]",+ (+ means >1 uM)
2,"Cc1cc(C)n(-c2cc(O)cc(NC3CCC(F)(F)CC3)n2)n1 [Compound 276, 2-((4,4-difluorocyclohexyl)amino)-6-(3,5-dimethyl-1H-pyrazol-1-yl)pyridin-4-ol]",+ (+ means >1 uM)
3,"Cc1cc(NC2CCC(F)(F)CC2)nc(-c2nc(C(F)F)cs2)n1 [Compound 277, N-(4,4-difluorocyclohexyl)-2-(4-(difluoromethyl)thiazol-2-yl)-6-methylpyrimidin-4-amine]",++ (++ means 200 nM-1000 nM)
4,"Cc1cc(NC2CCC(F)(F)CC2)nc(-c2nc(C(C)C)cs2)n1 [Compound 278, N-(4,4-difluorocyclohexyl)-2-(4-isopropylthiazol-2-yl)-6-methylpyrimidin-4-amine]",++ (++ means 200 nM-1000 nM)
5,"CCc1csc(-c2nc(C)cc(NC3CCC(F)(F)CC3)n2)n1 [Compound 279, N-(4,4-difluorocyclohexyl)-2-(4-ethylthiazol-2-yl)-6-methylpyrimidin-4-amine]",++ (++ means 200 nM-1000 nM)
6,"FCc1ccn(-c2nc(NC3CCC(F)(F)CC3)cc(N3CCOCC3)n2)n1 [Compound 280, N-(4,4-difluorocyclohexyl)-2-(3-(fluoromethyl)-1H-pyrazol-1-yl)-6-morpholinopyrimidin-4-amine]",+ (+ means >1 uM)
7,"Cc1cn(-c2nc(NC3CCC(F)(F)CC3)cc(N3CCOCC3)n2)nc1CF [Compound 281, N-(4,4-difluorocyclohexyl)-2-(3-(fluoromethyl)-4-methyl-1H-pyrazol-1-yl)-6-morpholinopyrimidin-4-amine]",++ (++ means 200 nM-1000 nM)
8,"Cc1cn(-c2nc(NC3CCC(F)(F)CC3)cc(N3CCOCC3)n2)nc1C(F)F [Compound 282, N-(4,4-difluorocyclohexyl)-2-(3-(difluoromethyl)-4-methyl-1H-pyrazol-1-yl)-6-morpholinopyrimidin-4-amine]",+ (+ means >1 uM)
9,"FCc1ccn(-c2nc(NC3CCC(F)(F)CC3)cc(N3CCSCC3)n2)n1 [Compound 284, N-(4,4-difluorocyclohexyl)-2-(3-(fluoromethyl)-1H-pyrazol-1-yl)-6-thiomorpholinopyrimidin-4-amine]",++ (++ means 200 nM-1000 nM)
10,"FCc1ccn(-c2nc(NC3CCC(F)(F)CC3)cc(OC3COC3)n2)n1 [Compound 285, N-(4,4-difluorocyclohexyl)-2-(3-(fluoromethyl)-1H-pyrazol-1-yl)-6-(oxetan-3-yloxy)pyrimidin-4-amine]",+ (+ means >1 uM)
11,"Cn1cnc2c(NC3CCC(F)(F)CC3)nc(-n3ccc(CF)n3)cc21 [Compound 286, N-(4,4-difluorocyclohexyl)-6-(3-(fluoromethyl)-1H-pyrazol-1-yl)-1-methyl-1H-imidazo[4,5-c]pyridin-4-amine]",+++ (+++ means <200 nM)
12,"CCOC(=O)N1CC(Oc2cc(NC3CCC(F)(F)CC3)nc(-n3ccc(CF)n3)n2)C1 [Compound 287, ethyl 3-((6-((4,4-difluorocyclohexyl)amino)-2-(3-(fluoromethyl)-1H-pyrazol-1-yl)pyrimidin-4-yl)oxy)azetidine-1-carboxylate]",++ (++ means 200 nM-1000 nM)
13,"CCC(=O)N1CC(Oc2cc(NC3CCC(F)(F)CC3)nc(-n3ccc(CF)n3)n2)C1 [Compound 288, 1-(3-((6-((4,4-difluorocyclohexyl)amino)-2-(3-(fluoromethyl)-1H-pyrazol-1-yl)pyrimidin-4-yl)oxy)azetidin-1-yl)propan-1-one]",++ (++ means 200 nM-1000 nM)
14,"CC(=O)N1CC(Oc2cc(NC3CCC(F)(F)CC3)nc(-n3ccc(CF)n3)n2)C1 [Compound 289, 1-(3-((6-((4,4-difluorocyclohexyl)amino)-2-(3-(fluoromethyl)-1H-pyrazol-1-yl)pyrimidin-4-yl)oxy)azetidin-1-yl)ethan-1-one]",++ (++ means 200 nM-1000 nM)
15,"CC(C)C(=O)N1CC(Oc2cc(NC3CCC(F)(F)CC3)nc(-n3ccc(CF)n3)n2)C1 [Compound 290, 1-(3-((6-((4,4-difluorocyclohexyl)amino)-2-(3-(fluoromethyl)-1H-pyrazol-1-yl)pyrimidin-4-yl)oxy)azetidin-1-yl)-2-methylpropan-1-one]",++ (++ means 200 nM-1000 nM)
16,"COC(=O)N1CC(Oc2cc(NC3CCC(F)(F)CC3)nc(-n3ccc(CF)n3)n2)C1 [Compound 291, methyl 3-((6-((4,4-difluorocyclohexyl)amino)-2-(3-(fluoromethyl)-1H-pyrazol-1-yl)pyrimidin-4-yl)oxy)azetidine-1-carboxylate]",++ (++ means 200 nM-1000 nM)
17,"CC(C)(C)C(=O)N1CC(Oc2cc(NC3CCC(F)(F)CC3)nc(-n3ccc(CF)n3)n2)C1 [Compound 293, 1-(3-((6-((4,4-difluorocyclohexyl)amino)-2-(3-(fluoromethyl)-1H-pyrazol-1-yl)pyrimidin-4-yl)oxy)azetidin-1-yl)-2,2-dimethylpropan-1-one]",++ (++ means 200 nM-1000 nM)
